From the supplement of paper PMC6045584
± gives the standard deviation of the averaged measurements.

Experiments:
SALINOMYCIN = compound: CC[C@@H](C(=O)[C@@H](C)[C@@H](O)[C@H](C)[C@@H]1O[C@@H]([C@@H](CC)C(=O)O)CC[C@@H]1C)[C@H]1O[C@]2(C=C[C@@H](O)[C@]3(CC[C@@](C)([C@H]4CC[C@](O)(CC)[C@H](C)O4)O3)O2)[C@H](C)C[C@@H]1C [SALINOMYCIN]; assay: surviving fraction relative to DMSO-only wells; higher = less growth inhibition; conditions: exposure time: 5 days
Outline: (§1)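 At 250–500 cells per well in 384-well plates, log-phase tumour cell lines were seeded and, 24 hours on, exposed continuously for five days to inhibitors at 0.5, 1, 5, 10, 50, 100, 500 and 1000 nM. Viability readout was CellTiter-Glo luminescence, reported as surviving fraction normalised to the median of DMSO-only wells.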

FLAVOPIRIDOL = compound: CN1CC[C@H](c2c(O)cc(O)c3c(=O)cc(-c4ccccc4Cl)oc23)[C@H](O)C1 [FLAVOPIRIDOL]; assay: as above; conditions: exposure time: 5 days
Outline: as §1

Row | Test System | surviving fraction (SALINOMYCIN; 0.5 nM) | surviving fraction (SALINOMYCIN; 1 nM) | surviving fraction (SALINOMYCIN; 5 nM) | surviving fraction (SALINOMYCIN; 10 nM) | surviving fraction (SALINOMYCIN; 50 nM) | surviving fraction (SALINOMYCIN; 100 nM) | surviving fraction (SALINOMYCIN; 500 nM) | surviving fraction (SALINOMYCIN; 1000 nM) | surviving fraction (FLAVOPIRIDOL; 0.5 nM) | surviving fraction (FLAVOPIRIDOL; 1 nM) | surviving fraction (FLAVOPIRIDOL; 5 nM) | surviving fraction (FLAVOPIRIDOL; 10 nM) | surviving fraction (FLAVOPIRIDOL; 50 nM) | surviving fraction (FLAVOPIRIDOL; 100 nM) | surviving fraction (FLAVOPIRIDOL; 500 nM) | surviving fraction (FLAVOPIRIDOL; 1000 nM)
1 | 22RV1 PROSTATE | 1.01 ± 0.075 | 0.987 ± 0.053 | 1 ± 0.06 | 0.942 ± 0.059 | 0.817 ± 0.031 | 0.448 ± 0.038 | 0.195 ± 0.021 | 0.125 ± 0.015 | 1.04 ± 0.12 | 0.928 ± 0.16 | 0.953 ± 0.11 | 0.893 ± 0.2 | 0.897 ± 0.11 | 0.405 ± 0.14 | 0.124 ± 0.11 | 0.118 ± 0.086
2 | 93VU HEADNECK | 0.887 ± 0.048 | 0.885 ± 0.11 | 1.01 ± 0.04 | 1.05 ± 0.023 | 0.976 ± 0.08 | 0.91 ± 0.053 | 0.304 ± 0.041 | 0.177 ± 0.005 | 1.04 ± 0.088 | 1.03 ± 0.012 | 1.19 ± 0.066 | 1.12 ± 0.11 | 0.82 ± 0.011 | 0.0713 ± 0.0035 | 0.0237 ± 0.0015 | 0.0217 ± 0.0015
3 | 143B BONE | 0.98 ± 0.044 | 0.99 ± 0.026 | 1.02 ± 0.023 | 1.01 ± 0.027 | 1.03 ± 0.018 | 1.03 ± 0.035 | 0.9815 ± 0.00071 | 0.763 ± 0.028 | 1.12 ± 0.14 | 1.11 ± 0.086 | 1.11 ± 0.048 | 1.11 ± 0.095 | 0.824 ± 0.024 | 0.279 ± 0.0035 | 0.045 ± 0.0028 | 0.042 ± 0.0028
4 | A549 LUNG | 0.944 ± 0.028 | 0.9123 ± 0.005 | 0.95 ± 0.033 | 0.907 ± 0.022 | 1.03 ± 0.028 | 0.97 ± 0.03 | 0.729 ± 0.018 | 0.528 ± 0.033 | 1.04 ± 0.011 | 1.05 ± 0.015 | 1.06 ± 0.013 | 1.05 ± 0.018 | 1.18 ± 0.028 | 0.379 ± 0.11 | 0.0697 ± 0.0058 | 0.0687 ± 0.0038
5 | ASKA SYNOVIAL | 1.05 ± 0.088 | 0.926 ± 0.086 | 1.02 ± 0.1 | 0.582 ± 0.048 | 1.14 ± 0.034 | 1.03 ± 0.016 | 0.797 ± 0.073 | 0.441 ± 0.037 | 1.02 ± 0.087 | 1.02 ± 0.066 | 1.11 ± 0.054 | 1.11 ± 0.036 | 0.507 ± 0.065 | 0.202 ± 0.01 | 0.186 ± 0.012 | 0.261 ± 0.0078
6 | BT20 BREAST | 0.964 ± 0.16 | 1.05 ± 0.14 | 1.12 ± 0.076 | 1.3 ± 0.25 | 1.32 ± 0.19 | 1.19 ± 0.25 | 1.22 ± 0.31 | 1.13 ± 0.3 | 1.21 ± 0.073 | 1.16 ± 0.022 | 1.17 ± 0.1 | 1.013 ± 0.0035 | 0.742 ± 0.12 | 0.359 ± 0.012 | 0.038 ± 0.0062 | 0.0367 ± 0.004
7 | BT549 BREAST | 0.999 ± 0.033 | 1.18 ± 0.079 | 1.02 ± 0.056 | 0.93 ± 0.031 | 0.891 ± 0.35 | 0.73 ± 0.39 | 0.523 ± 0.2 | 0.341 ± 0.079 | 1.17 ± 0.052 | 1.13 ± 0.094 | 1.11 ± 0.07 | 0.994 ± 0.021 | 0.454 ± 0.035 | 0.074 ± 0.012 | 0.0343 ± 0.005 | 0.035 ± 0.007
8 | C33A CERVIX | 0.812 ± 0.13 | 0.769 ± 0.16 | 1 ± 0.12 | 1.05 ± 0.21 | 1.08 ± 0.035 | 1.08 ± 0.13 | 0.328 ± 0.024 | 0.25 ± 0.0067 | 0.991 ± 0.084 | 1.1 ± 0.041 | 1.12 ± 0.067 | 1.31 ± 0.13 | 0.923 ± 0.13 | 0.366 ± 0.011 | 0.028 ± 0.0027 | 0.0277 ± 0.0072
9 | CADOES1 SOFT TISSUE | 0.978 ± 0.096 | 0.959 ± 0.036 | 0.838 ± 0.14 | 0.918 ± 0.15 | 0.856 ± 0.041 | 0.454 ± 0.1 | 0.147 ± 0.0061 | 0.105 ± 0.004 | 0.844 ± 0.099 | 0.924 ± 0.062 | 0.843 ± 0.13 | 0.888 ± 0.082 | 0.332 ± 0.062 | 0.146 ± 0.054 | 0.0357 ± 0.0051 | 0.038
10 | CAL51 BREAST | 0.937 ± 0.041 | 0.86 ± 0.12 | 0.984 ± 0.018 | 0.969 ± 0.021 | 1 ± 0.017 | 0.972 ± 0.034 | 0.615 ± 0.022 | 0.359 ± 0.018 | 1.02 ± 0.065 | 0.983 ± 0.092 | 1.02 ± 0.056 | 0.877 ± 0.092 | 0.528 ± 0.0091 | 0.0968 ± 0.014 | 0.0297 ± 0.00058 | 0.03133 ± 0.00029
11 | CAL72 BONE | 1.05 ± 0.037 | 1.02 ± 0.044 | 1.04 ± 0.018 | 1.06 ± 0.027 | 1.11 ± 0.021 | 1.1 ± 0.049 | 0.647 ± 0.087 | 0.564 ± 0.031 | 1.09 ± 0.1 | 1.06 ± 0.021 | 1.05 ± 0.049 | 0.982 ± 0.04 | 0.649 ± 0.053 | 0.142 ± 0.053 | 0.0577 ± 0.0032 | 0.0577 ± 0.0076
12 | CAL120 BREAST | 0.8885 ± 0.0083 | 0.893 ± 0.0056 | 0.877 ± 0.021 | 0.8868 ± 0.0073 | 0.661 ± 0.01 | 0.334 ± 0.015 | 0.088 ± 0.0061 | 0.0535 ± 0.0022 | 0.971 ± 0.055 | 0.972 ± 0.029 | 0.955 ± 0.058 | 0.949 ± 0.03 | 0.73 ± 0.034 | 0.314 ± 0.051 | 0.0425 ± 0.003 | 0.0403 ± 0.0016
13 | CASKI CERVIX | 0.93 ± 0.055 | 0.921 ± 0.039 | 0.868 ± 0.037 | 0.911 ± 0.038 | 0.703 ± 0.0027 | 0.583 ± 0.028 | 0.3273 ± 0.0031 | 0.289 ± 0.024 | 0.918 ± 0.045 | 0.969 ± 0.031 | 0.919 ± 0.055 | 0.888 ± 0.056 | 0.284 ± 0.028 | 0.0293 ± 0.0015 | 0.022 ± 0.001 | 0.0253 ± 0.00058
14 | CHLA90 AUTONOMIC GANGLIA | 0.992 ± 0.017 | 0.9167 ± 0.0091 | 0.926 ± 0.014 | 0.396 ± 0.01 | 0.949 ± 0.069 | 0.877 ± 0.048 | 0.169 ± 0.028 | 0.0267 ± 0.00058 | 0.987 ± 0.1 | 1 ± 0.12 | 0.906 ± 0.083 | 0.878 ± 0.021 | 0.826 ± 0.11 | 0.573 ± 0.072 | 0.0277 ± 0.0015 | 0.0247 ± 0.00058
15 | CME SYNOVIAL | 1.12 ± 0.14 | 0.826 ± 0.031 | 1.06 ± 0.15 | 0.177 ± 0.069 | 1.14 ± 0.07 | 0.947 ± 0.094 | 0.351 ± 0.018 | 0.141 ± 0.0067 | 1.13 ± 0.18 | 1.22 ± 0.07 | 1.23 ± 0.081 | 1.2 ± 0.07 | 0.864 ± 0.053 | 0.25 ± 0.0067 | 0.168 ± 0.004 | 0.228 ± 0.012
16 | COLO320DM LARGE INTESTINE | 1.05 ± 0.037 | 1.04 ± 0.036 | 1.11 ± 0.026 | 0.522 ± 0.056 | 1.14 ± 0.12 | 0.966 ± 0.081 | 0.388 ± 0.0066 | 0.1 ± 0.006 | 1.1 ± 0.11 | 1.09 ± 0.086 | 1.08 ± 0.14 | 1.01 ± 0.12 | 0.503 ± 0.0073 | 0.0807 ± 0.0055 | 0.0493 ± 0.00076 | 0.0478 ± 0.0036
17 | DU4475 BREAST | 0.949 ± 0.23 | 0.893 ± 0.28 | 0.857 ± 0.28 | 0.9 ± 0.33 | 0.793 ± 0.27 | 0.665 ± 0.32 | 0.293 ± 0.18 | 0.17 ± 0.078 | 1.05 ± 0.1 | 1.08 ± 0.12 | 0.83 ± 0.07 | 0.914 ± 0.16 | 0.162 ± 0.021 | 0.0273 ± 0.0021 | 0.025 ± 0.0027 | 0.0267 ± 0.0021
18 | H23 LUNG | 0.969 ± 0.043 | 0.957 ± 0.055 | 0.9683 ± 0.0096 | 0.959 ± 0.04 | 1.21 ± 0.03 | 1.19 ± 0.028 | 0.622 ± 0.012 | 0.399 ± 0.007 | 1.03 ± 0.034 | 1.05 ± 0.027 | 1.15 ± 0.073 | 1.18 ± 0.079 | 1.54 ± 0.11 | 0.5197 ± 0.005 | 0.0303 ± 0.0015 | 0.026 ± 0.001
19 | HCC78 LUNG | 0.833 ± 0.18 | 0.693 ± 0.063 | 0.855 ± 0.17 | 0.948 ± 0.071 | 0.72 ± 0.095 | 0.697 ± 0.24 | 0.228 ± 0.014 | 0.143 ± 0.022 | 1.08 ± 0.18 | 0.94 ± 0.032 | 0.898 ± 0.11 | 0.809 ± 0.25 | 0.151 ± 0.032 | 0.0467 ± 0.0059 | 0.0207 ± 0.00058 | 0.02
20 | HCC202 BREAST | 1.39 ± 0.31 | 0.95 ± 0.16 | 0.918 ± 0.26 | 1.13 ± 0.17 | 1.03 ± 0.18 | 0.737 ± 0.16 | 0.189 ± 0.037 | 0.109 ± 0.0082 | 0.988 ± 0.55 | 1.17 ± 0.34 | 1.13 ± 0.22 | 1.06 ± 0.31 | 0.847 ± 0.13 | 0.304 ± 0.012 | 0.0405 ± 0.00071 | 0.0405 ± 0.00071
